# Active and inactive are the calls of the source.
# How the values were obtained:
# INS1 = assay: beta cell apoptosis inhibitors, cytokine rescue, dose response, luminescence, retest (AID 449756); type: functional, cell-based; settings: Rattus norvegicus;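 note: cell death triggered by IL-1 beta plus TNF-alpha plus IFN-gamma mixture; protective hits raise ATP signal compared with cytokine alone wells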
# Cytochrome P450 2C19 = Cytochrome P450 2C19 (Homo sapiens, UniProt P33261); assay: Cytochrome panel assay with activity outcomes. Panel member name: p450-cyp2c19 Compounds with AC50 equal or less than 10 uM are considered active; type: functional; settings: read-out: AC50
# [1] = cytotoxicity toward NIH3T3 fibroblasts, dose response, counter-screen, cell-based, ATP luminescence, mouse fibroblasts (AID 2010); type: functional;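 note: cells exposed to compound for about 90 hours before reading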
# [2] = growth suppression of beta-catenin-knockout colon cells, dose response, cell-based, HCT116, human colon tumor (AID 1045); type: functional;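 note: HCT116 colon tumor cells with beta catenin knocked out; cells exposed to compound for 60 hours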
# [3] = growth suppression of PTEN-null colon cells, dose response, cell-based, HCT116 PTEN knockout (AID 1047); type: functional;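 note: HCT116 colon tumor cells with PTEN knocked out; cells exposed to compound for 60 hours before readout; potency for loss of cell viability measured by luminescence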
# [4] = inhibitors of intracellular T. cruzi replication, confirmation, NIH3T3 host cells, beta-gal luminescence (AID 2044); type: functional, cell-based;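 note: intracellular parasites grown in NIH/3T3 mouse fibroblasts as host cells; luminescent beta-galactosidase reporter signal from transgenic T. cruzi replicating inside host cells; inhibitors lower the luminescence signal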
# [5] = molecular target: T1, RNA-binding protein pos-1 (Caenorhabditis elegans, UniProt G5EF15); assay: inhibitors of POS-1/mex-3 RNA binding, dose response, biochemical, fluorescence polarization (AID 1964);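 note: purified POS-1 fused to maltose binding protein made in E. coli; potency of compounds blocking POS-1 binding to fluorescent RNA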
# T1 sequence (G5EF15 whole entry): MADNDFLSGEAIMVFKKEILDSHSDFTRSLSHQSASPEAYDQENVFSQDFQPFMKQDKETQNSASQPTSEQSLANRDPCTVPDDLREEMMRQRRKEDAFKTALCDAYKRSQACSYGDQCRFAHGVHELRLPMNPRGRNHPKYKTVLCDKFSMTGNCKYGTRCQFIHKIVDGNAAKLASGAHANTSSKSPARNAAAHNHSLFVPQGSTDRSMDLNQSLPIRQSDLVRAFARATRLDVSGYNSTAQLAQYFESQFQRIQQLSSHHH
# [6] = molecular target: T2, Zinc finger protein mex-5 (Caenorhabditis elegans, UniProt Q9XUB2); assay: MEX-5/TCR-2 RNA interaction inhibitors, dose response, biochemical, C. elegans, fluorescence polarization (AID 1960)
# T2 sequence (Q9XUB2 whole entry): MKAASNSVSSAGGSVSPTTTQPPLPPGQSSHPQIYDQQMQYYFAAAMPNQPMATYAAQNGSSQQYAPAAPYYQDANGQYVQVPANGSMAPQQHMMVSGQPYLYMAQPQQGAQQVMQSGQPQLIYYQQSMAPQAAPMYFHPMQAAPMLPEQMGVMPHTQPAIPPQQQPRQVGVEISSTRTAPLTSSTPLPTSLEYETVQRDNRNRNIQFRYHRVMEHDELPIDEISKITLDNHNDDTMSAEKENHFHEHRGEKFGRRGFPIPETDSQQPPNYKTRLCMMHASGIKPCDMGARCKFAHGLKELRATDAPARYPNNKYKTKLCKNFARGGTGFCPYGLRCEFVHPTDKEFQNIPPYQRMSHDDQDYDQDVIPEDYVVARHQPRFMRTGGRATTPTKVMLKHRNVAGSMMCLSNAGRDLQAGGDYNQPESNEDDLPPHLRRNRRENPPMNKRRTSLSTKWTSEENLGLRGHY
# Genome polyprotein = Genome polyprotein (dengue virus type 2, UniProt P29990); assay: Dengue-2 NS5 methyltransferase inhibitors, primary screen, biochemical, confirmation dose response (AID 588689); type: functional
# [7] = molecular target: T3, Heat shock factor protein 1 (Mus musculus, UniProt P38532); assay: inhibition of MG132-induced HSE-luciferase signal, confirmation, cell-based, NIH3T3, luminescence, dose retest (AID 2382); type: functional;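 note: NIH3T3 fibroblasts with HSF1-driven luciferase reporter stressed by proteasome inhibitor MG132; luminescence from HSF1-driven luciferase expression after 8 hours of MG132 stress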
# T3 sequence (P38532 whole entry): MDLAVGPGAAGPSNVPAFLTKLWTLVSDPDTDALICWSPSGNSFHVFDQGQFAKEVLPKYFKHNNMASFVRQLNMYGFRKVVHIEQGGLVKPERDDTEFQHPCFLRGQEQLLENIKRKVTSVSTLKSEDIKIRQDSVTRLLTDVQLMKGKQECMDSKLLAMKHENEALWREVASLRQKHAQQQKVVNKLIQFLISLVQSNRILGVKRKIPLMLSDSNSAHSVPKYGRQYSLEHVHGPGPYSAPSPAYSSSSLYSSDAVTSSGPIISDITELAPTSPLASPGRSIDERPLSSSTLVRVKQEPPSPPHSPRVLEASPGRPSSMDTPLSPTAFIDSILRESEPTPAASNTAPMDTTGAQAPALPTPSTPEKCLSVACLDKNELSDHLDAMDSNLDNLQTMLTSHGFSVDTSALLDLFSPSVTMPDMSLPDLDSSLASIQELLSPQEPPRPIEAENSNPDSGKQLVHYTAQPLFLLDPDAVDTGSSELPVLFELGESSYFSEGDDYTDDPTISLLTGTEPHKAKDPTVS
# [8] = molecular target: T4, Replicative DNA helicase DnaB (Mycobacterium tuberculosis, UniProt P9WMR3); assay: DnaB intein splicing inhibitors, dose response, biochemical, cell-free fluorescence (AID 449749); type: functional
# T4 sequence (P9WMR3 whole entry): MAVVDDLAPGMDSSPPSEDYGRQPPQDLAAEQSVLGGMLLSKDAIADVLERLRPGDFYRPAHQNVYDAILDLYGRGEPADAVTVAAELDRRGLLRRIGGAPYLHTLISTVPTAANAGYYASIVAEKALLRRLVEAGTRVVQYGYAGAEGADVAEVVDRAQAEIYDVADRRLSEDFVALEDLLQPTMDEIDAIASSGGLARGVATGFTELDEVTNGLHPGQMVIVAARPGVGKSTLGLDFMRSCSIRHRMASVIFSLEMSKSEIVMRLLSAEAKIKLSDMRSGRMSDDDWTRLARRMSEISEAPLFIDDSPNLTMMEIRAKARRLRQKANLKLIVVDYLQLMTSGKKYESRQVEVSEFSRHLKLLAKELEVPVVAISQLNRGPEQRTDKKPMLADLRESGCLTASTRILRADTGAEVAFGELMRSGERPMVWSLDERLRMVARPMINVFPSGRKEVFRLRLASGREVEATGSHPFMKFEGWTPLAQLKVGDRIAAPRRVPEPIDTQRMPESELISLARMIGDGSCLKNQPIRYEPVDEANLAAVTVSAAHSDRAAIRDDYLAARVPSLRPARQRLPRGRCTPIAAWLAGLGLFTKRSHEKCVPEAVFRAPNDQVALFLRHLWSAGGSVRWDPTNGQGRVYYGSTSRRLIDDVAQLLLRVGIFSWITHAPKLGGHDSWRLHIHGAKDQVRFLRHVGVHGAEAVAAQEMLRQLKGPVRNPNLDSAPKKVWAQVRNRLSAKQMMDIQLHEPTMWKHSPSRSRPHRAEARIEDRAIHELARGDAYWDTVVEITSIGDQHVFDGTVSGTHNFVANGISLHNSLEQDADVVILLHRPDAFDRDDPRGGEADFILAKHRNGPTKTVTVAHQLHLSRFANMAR
# Protein RecA = molecular target: T5, Protein RecA (Mycobacterium tuberculosis, UniProt P9WHJ3); assay: Fluorescence Cell-Free Homogeneous Dose Retest to Identify Inhibitors of RecA-Intein Splicing Activity. [Related pubchem assays (depositor defined):AID2097, AID2223, AID489010, AID492950]; type: functional
# T5 sequence (P9WHJ3 whole entry): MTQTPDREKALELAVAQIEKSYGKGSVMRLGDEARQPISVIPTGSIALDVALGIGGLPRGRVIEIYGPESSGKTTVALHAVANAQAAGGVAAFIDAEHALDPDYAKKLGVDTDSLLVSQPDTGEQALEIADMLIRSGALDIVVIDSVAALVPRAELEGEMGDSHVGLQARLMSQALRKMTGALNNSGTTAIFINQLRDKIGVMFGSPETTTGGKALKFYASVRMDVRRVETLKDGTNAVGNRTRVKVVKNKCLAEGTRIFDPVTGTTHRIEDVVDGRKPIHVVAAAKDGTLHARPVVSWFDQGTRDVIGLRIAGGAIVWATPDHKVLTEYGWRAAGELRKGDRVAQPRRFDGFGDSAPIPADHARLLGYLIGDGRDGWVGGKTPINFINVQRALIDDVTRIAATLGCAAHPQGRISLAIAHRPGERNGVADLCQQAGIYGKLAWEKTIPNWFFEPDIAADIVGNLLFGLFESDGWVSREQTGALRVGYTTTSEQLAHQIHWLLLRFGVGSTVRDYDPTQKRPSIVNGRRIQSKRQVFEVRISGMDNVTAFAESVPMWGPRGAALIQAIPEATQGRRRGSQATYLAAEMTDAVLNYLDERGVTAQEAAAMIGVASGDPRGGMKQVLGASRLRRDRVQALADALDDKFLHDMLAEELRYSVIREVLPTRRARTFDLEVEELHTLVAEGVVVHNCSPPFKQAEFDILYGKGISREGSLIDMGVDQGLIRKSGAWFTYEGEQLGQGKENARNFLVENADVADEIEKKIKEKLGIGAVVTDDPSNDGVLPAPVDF
# [9] = inhibitors of clade B AD8 Env fusion, dose response, cell-based, cherry-pick (AID 652062); type: functional;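 note: luciferase signal from cell-cell fusion driven by HIV-1 clade B AD8 Env; potency is for inhibitors of fusion seen as a drop in luminescence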
# H4 = assay: Luminescence Cell-Based Dose Response HTS to Identify Activators of 5'UTR Stem-Loop Driven Prion Protein mRNA Translation in H4 Neuroglioblastoma Cells. [Related pubchem assays: 1829 (Project Summary), 1814 (Primary HTS)]; type: functional; settings: Homo sapiens
# [10] = Luminescence Cell-Based Dose Confirmation HTS to Identify Activators of 5'UTR Stem-Loop Driven Alpha-Synuclein mRNA Translation in H4 Neuroglioblastoma Cells. [Related pubchem assays: 1829 (Project Summary), 1814 (Primary HTS)]; type: functional
# [11] = Luminescence Cell-Based Dose Response HTS to Identify Activators of Luciferase Translation or Activity in H4 […] Cells. [Related pubchem assays: 1829 (Project Summary), 1814 (Primary HTS)]; type: functional
# Vero = assay: cells; type: functional, Chlorocebus sabaeus; settings: Chlorocebus sabaeus, Vero
# Sequence of Genome polyprotein (P29990 2492-3391 limits assumed): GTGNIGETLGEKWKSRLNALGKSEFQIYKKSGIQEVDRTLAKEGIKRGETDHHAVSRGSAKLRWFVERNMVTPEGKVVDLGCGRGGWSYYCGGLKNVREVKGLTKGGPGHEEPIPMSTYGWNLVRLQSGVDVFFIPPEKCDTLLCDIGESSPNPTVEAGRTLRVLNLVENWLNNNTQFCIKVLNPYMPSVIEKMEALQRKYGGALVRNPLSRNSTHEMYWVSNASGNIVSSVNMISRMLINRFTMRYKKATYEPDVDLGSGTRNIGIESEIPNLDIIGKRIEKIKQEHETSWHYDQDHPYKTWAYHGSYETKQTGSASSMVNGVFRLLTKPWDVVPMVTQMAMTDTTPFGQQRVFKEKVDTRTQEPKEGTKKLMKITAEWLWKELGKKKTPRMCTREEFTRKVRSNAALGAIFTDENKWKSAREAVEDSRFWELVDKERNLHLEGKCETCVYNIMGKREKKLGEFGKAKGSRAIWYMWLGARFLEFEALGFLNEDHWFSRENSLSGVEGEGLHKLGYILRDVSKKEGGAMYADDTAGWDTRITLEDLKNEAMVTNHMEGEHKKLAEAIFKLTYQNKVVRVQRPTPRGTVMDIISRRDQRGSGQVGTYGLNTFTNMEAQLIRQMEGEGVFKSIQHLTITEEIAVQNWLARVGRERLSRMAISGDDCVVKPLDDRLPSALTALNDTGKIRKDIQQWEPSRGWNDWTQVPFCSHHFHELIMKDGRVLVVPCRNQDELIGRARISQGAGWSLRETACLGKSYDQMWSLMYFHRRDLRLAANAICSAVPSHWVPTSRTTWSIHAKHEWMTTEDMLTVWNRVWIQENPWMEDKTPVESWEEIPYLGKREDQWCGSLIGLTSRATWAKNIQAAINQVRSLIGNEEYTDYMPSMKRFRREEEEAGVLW
# Sequence of Cytochrome P450 2C19 (P33261 whole entry): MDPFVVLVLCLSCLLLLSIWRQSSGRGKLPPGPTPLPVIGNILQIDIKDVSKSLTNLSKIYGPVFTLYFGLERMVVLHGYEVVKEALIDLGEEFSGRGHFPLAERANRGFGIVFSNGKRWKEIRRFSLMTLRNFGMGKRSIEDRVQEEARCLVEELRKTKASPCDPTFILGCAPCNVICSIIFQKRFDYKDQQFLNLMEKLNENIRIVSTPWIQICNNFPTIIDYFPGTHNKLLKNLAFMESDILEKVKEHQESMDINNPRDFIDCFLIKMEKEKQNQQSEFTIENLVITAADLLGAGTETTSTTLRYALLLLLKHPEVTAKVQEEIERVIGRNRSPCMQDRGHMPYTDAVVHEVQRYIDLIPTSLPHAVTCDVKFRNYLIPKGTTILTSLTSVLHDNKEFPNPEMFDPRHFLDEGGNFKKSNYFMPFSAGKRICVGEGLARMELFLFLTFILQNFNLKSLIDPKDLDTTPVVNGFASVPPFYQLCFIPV
smiles,measurement,setting,value
COc1ccc(CNCCC(c2ccc(OC(C)C)cc2)C(C)C)cc1OC (centres undefined),AC50,INS1,12.7 µM (active)
same,AC50,Cytochrome P450 2C19,10 µM (inconclusive)
same,EC50,[1],9.8 µM (active)
same,EC50,[2],10.7 µM (active)
same,EC50,[3],13 µM (active)
same,EC50,[4],0.416 µM (active)
O=C(Nc1ccc(F)cc1)c1nc[nH]c1C(=O)Nc1ccccc1[N+](=O)[O-],EC50,[2],4.18 µM (active)
same,EC50,[3],3.08 µM (active)
O=c1c2ccccc2nc(CSc2[nH]cnc3ncnc2-3)n1-c1ccccc1,EC50,[2],28.9 µM (active)
same,EC50,[3],14.9 µM (active)
COCCn1c(N)c(NCc2ccccc2)c(=O)[nH]c1=O,EC50,[5],5.47 µM (inconclusive)
same,EC50,[6],3.03 µM (active)
CCc1ccc(Nc2ccc(C(=O)O)cc2[N+](=O)[O-])cc1,IC50,Genome polyprotein,> 100 µM (active)
COC(=O)CCC(=O)OC1(C)C(=O)C=C2C=C(C3CC3)N(c3ccc(CO)cc3)C=C2C1=O (centres undefined),EC50,[5],25.5 µM (active)
same,EC50,[6],23.5 µM (active)
Cc1ccc(N2C(=O)NC(=O)/C(=C/c3cnn(-c4ccc(C)cc4)c3)C2=O)cc1,EC50,[5],> 300 µM (not active)
same,EC50,[7],> 195 µM (not active)
same,EC50,[6],67.5 µM (active)
Cc1cc([N+](=O)[O-])cc2c1NCC1CC=CC21 (centres undefined),EC50,[5],> 300 µM (not active)
same,EC50,[6],> 300 µM (not active)
Cc1ccc(N2C(=O)C(Cl)=C(N3CCOCC3)C2=O)cc1Cl,AC50,[8],6.76 µM (active)
same,EC50,Protein RecA,2.61 µM (active)
same,IC50,Genome polyprotein,34.7 µM (active)
O=C1NC(=O)C(=Cc2c(Cl)cccc2Cl)C(=O)N1,IC50,Genome polyprotein,43.4 µM (active)
O=C(C[C@H]1C[C@H]2c3cc(NC(=O)C4CCC4)ccc3O[C@H]2[C@H](CO)O1)NCc1ccc2c(c1)OCO2,AC50,[9],4.08 µM (active)
Nc1c(C(=O)NCc2ccc(F)cc2)c2nc3ccccc3nc2n1CCCN1CCOCC1,EC50,[2],18.9 µM (active)
same,EC50,[3],21.5 µM (active)
O=C(O)c1ccccc1-n1cccc1C(=O)O,EC50,[5],> 300 µM (not active)
same,EC50,[6],> 300 µM (not active)
O=C1c2cccc3c([N+](=O)[O-])ccc(c23)C(=O)N1c1nccs1,EC50,[2],11.9 µM (active)
same,EC50,[3],21.6 µM (active)
Cc1n[nH]c(C)c1S(=O)(=O)N1CCCC(C(=O)Nc2ccc(Br)cc2)C1 (centres undefined),EC50,H4,> 120 µM (not active)
same,EC50,[5],> 300 µM (not active)
same,EC50,[10],> 120 µM (not active)
same,EC50,[11],> 120 µM (not active)
same,EC50,[6],> 300 µM (not active)
CN1CCN(C(=O)CCN2C(=O)/C(=C\c3ccc(Cl)cc3)SC2=S)CC1,CC50,Vero,15.8 µM (active)
Cc1ccc(NCc2nnc(SCC(=O)Nc3ncc(C)s3)n2Cc2ccco2)c(C)c1,EC50,[2],23.8 µM (active)
same,EC50,[3],23.3 µM (active)
O=C1CNC(=O)/C1=C/c1ccc(Br)cc1,IC50,Genome polyprotein,> 100 µM (active)
Cc1noc(/C=C/c2cccnc2)c1[N+](=O)[O-],EC50,[1],18.4 µM (active)
same,CC50,Vero,17.3 µM (active)
same,EC50,[4],2.34 µM (active)
O=C(CCN1C(=O)C2C3C=CC(C4CC34)C2C1=O)Oc1cccc2cccnc12 (centres undefined),EC50,[2],16.7 µM (active)
same,EC50,[3],18.8 µM (active)
COc1cccc(/C=C2\SC(=S)N(C(C(=O)O)c3ccccc3)C2=O)c1OC (centres undefined),IC50,Genome polyprotein,49.7 µM (active)
COC1C=COC2(C)Oc3c(C)c(O)c4c(O)c(c(CN5CCN(C)CC5)c(O)c4c3C2=O)NC(=O)C(C)=CC=CC(C)C(O)C(C)C(O)C(C)C(OC(C)=O)C1C (centres undefined),IC50,Genome polyprotein,96.6 µM (active)
O=C(Nc1cccn(Cc2c(Cl)cccc2Cl)c1=O)c1ccc(Cl)cc1,AC50,[9],8.74 µM (active)
CCN1CCN(c2cc(C)c3cc(NC(=O)c4cccc(OC)c4)ccc3n2)CC1,EC50,H4,17.9 µM (active)
same,EC50,[10],13.5 µM (active)
same,EC50,[11],16 µM (active)
same,CC50,Vero,> 25 µM (active)
CCn1nccc1C(=O)Nc1ccc(S(=O)(=O)NC23CC4CC(CC(C4)C2)C3)cc1,EC50,[2],27.9 µM (active)
same,EC50,[3],24.3 µM (active)
